Values of other authors in PMC11585628 (Nature Communications, 2024).

Tested on: SARS-CoV-2
Conditions: read-out: EC50 for antiviral effects

For XR8-24, the EC50 is listed as 1.2 µM.
